Read-outs that look alike come from different tables or passages of the source.
Experiments:
[1] = HIP2B stability study in distilled water by LC/MS; type: physicochemical; conditions: 4-8° C. and 25° C., 1, 2 and 3 weeks
Description: Experimental Procedure. The study was initiated with two groups of eight samples each. One group is maintained at 4-8° C. and the other at 25° C., as part of a 2 month stability study. Each sample contains 4.57 milligrams of HIP2B in 5 micro liters of distilled water. One sample from each temperature group is removed and placed in a minus 20° C. freezer, for storage, every seven days until an LC/MS analysis can be performed. A series of samples were evaluated after 1, 2, and 3 weeks in the stability study against a control sample of HIP2B which had been prepared at the initiation of the study and stored at −20° C. After three weeks of stability testing at each of the temperatures described above, all of the samples were unchanged as determined by LC/MS and therefore deemed stable at 1, 2, and three weeks.

[2] = In vitro stability of peptides to proteases in human plasma at 37 C (HPLC/LC-MS); type: in vitro ADME
Description: The peptides were incubated in human plasma, at 37° C. Sample incubations were performed over a period of 1 hr. Individual time points of 1, 5, 10, 30, and 60 minutes were used to follow the reactions. Deactivation of plasma proteases at each time point was achieved by heating the samples at 100° C. for 1 min. Following work-up the plasma treated samples were evaluated by reverse phase chromatography in series with at mass spectrometer, HPLC/LC-MS, against control samples.
Plasma Treated with HIP and Optimized HIP peptides were evaluated over 1, 5, 10, 30 and 60 minutes. For each time point 0.70 ml of plasma was pipetted into a 10 ml test tube. To each was added 0.30 ml of a stock solution of HIP or Optimized HIP peptide (1.66 mg/ml) prepared in phosphate buffered saline. The plasma/peptide samples were incubated at 37° C. for each time point followed by heating at 100° C. to inactivate the proteolytic activity of plasma proteases. Following inactivation, the samples were diluted with 1 ml of H2O, centrifuged and the supernatant liquid removed for analysis.
Samples were analyzed on a C-18 reverse phase column (50 mm×2.0 mm) using 0.07% TFA in H2O as buffer A and 0.07% TFA in acetonitrile as buffer B. A linear gradient of 98% A/2% B progressing to 30% A/70% B over 10 min. was used at a flow rate of 0.4 ml/min. Eluant was monitored by UV at a wavelength of 220 nm and by mass spectroscopy. Comparisons of chromatographic profiles of plasma treated peptides (37° C.) against peptide reference samples and plasma controls were used to determine the relative stability of peptide to plasma treatment.
T=0: Plasma (0.7 ml) plus peptide stock solution (0.3 ml), heat 100° C. 1 min. add 1 ml H2O, centrifuge.
Plasma background control: 0.7 ml plasma plus PBS (0.3 ml), heat 100° C. 1 min, add 1 ml H2O, centrifuge.
Peptide reference heat treated: Peptide stock solution (0.3 ml) plus 0.7 ml PBS, heat 100° C. 1 min., add 1 ml H2O.
Peptide reference no heat: Peptide stock solution (0.3 ml) add 0.7 ml PBS plus 1 ml H2O.

[3] = Pharmacokinetics and absolute bioavailability in Sprague Dawley rats, IV and SC 4 mg/kg (LC/MS MS); type: in vivo, rat; conditions: for AUC: read-out: AUC(0-∝)
Description: The absolute bioavailability and pharmacodynamic study was conducted in Sprague Dawley rats following intravenous and subcutaneous dose administration of HIP2 (FIG. 24), Optimized HIP2B and INGAP. The purpose was to determine the absorption, absolute bioavailability and plasma levels of HIP2, Optimized HIP2B and INGAP in male rats following two different routes of administration.
Six Groups of five male Sprague Dawley rats were administered HIP2, HIP2B or INGAP by intravenous and subcutaneous routes as follows in table below.
Ten serial blood plasma samples (0.03 ml each) were collected from a jugular vein catheter from five animals per group at 5, 10, 15, 30 minutes, 45 minutes followed by samples at 1, 2, 3, 8, and 24 hours post-dose. Plasma was collected into tubes containing EDTA. Following collection, samples were kept chilled on cool packs before centrifugation and transfer to pre-labeled microfuge tubes for storage at −70° C. or below.
Rat plasma samples of 200 μl each were added to a micro centrifuge tube containing 1 ml of acetonitrile (0.07% trifluoroacetic acid, TFA) and stirred with a vortex mixer for 1 min. followed by centrifugation to remove precipitated plasma proteins. The supernatant solution was removed and evaporated, using a Speed Vac, to dryness. To the micro centrifuge tube containing the dry pellet was added 200 μl of 20:80 acetonitrile:water (containing 0.07% TFA). The sample was centrifuged to remove any insoluble material and the supernatant solution transferred to analytical vials for LC/MS MS analysis. The mass spectrometer was calibrated to detect the most abundant daughter ion/ions observed for each of the respective reference samples of HIP2B (M=286.0), HIP2 (M=287.1) and INGAP (M=212.2, 356.1, 373.9). Optimized HIP2B, HIP2 and INGAP plasma samples were analyzed on a C-18 reverse phase column (50 mm×2.0 mm, Varian Pursuit XRS3) using 0.07% TFA in H2O as buffer A and 0.07% TFA in acetonitrile as buffer B. A linear gradient of 98% A/2% B progressing to 100% B over 9 minutes was used at a flow rate of 0.4 ml/min.
The following plasma controls were treated as described above and used to establish a standard concentration curve: • 1. Blank plasma as a background control • 2. Five standard plasma samples containing 6.7×10^4, 6.7×10^3, 6.7×10^2, […] ng/ml of HIP2B, HIP2 and INGAP

## Ac-IGLHDPTQGTEPNG-NH2 [HIP2B, Ac-Ile-Gly-Leu-His-Asp-Pro-Thr-Gln-Gly-Thr-Glu-Pro-Asn-Gly-NH2]
[1]
  stability by LC/MS: unchanged
[2]; human plasma 37° C., 1 hr
  stability to plasma proteases: completely stable
[2]; serum at 37 degrees, relative to HIP 2
  stability in vitro in serum: significantly more a more stable
[3]; IV, rat
  AUC(0-∝): 1614.3 ng·h/mL
  C1 h: 114 ng/mL
[3]; SQ versus IV, rat
  F: 0.87
[3]; all times post-dosing, each route
  appearance of animals post-dosing: appeared normal
[3]; in vivo, IV, rat
  Cmax: 8240 ng/mL
  Tmax: 4.98 min
[3]; in vivo, IV, rat, estimated
  C0: 18800 ng/mL
[3]; in vivo, IV, rat, read-out: apparent mean plasma clearance (converted)
  clearance: 31.7 mL/min/kg
[3]; in vivo, IV, rat, read-out: apparent mean volume of distribution
  Vd: 0.48 L/kg
[3]; in vivo, SQ, rat
  Tmax: 10 min
[3]; in vivo, SQ, rat, n = 5
  Cmax: 2740 ng/mL
[3]; in vivo, sc, rat, read-out: absolute subcutaneous bioavailability
  bioavailability: 87%
[3]; in vivo, sc, subcutaneous, rat, read-out: apparent mean Cl/F (converted)
  CL/F: 35 mL/min/kg
[3]; intravenous or subcutaneous, rat
  plasma levels: significantly higher relative to HIP2 or INGAP
[3]; intravenous, rat
  time by which concentrations were undetectable: ≤ 45 min
[3]; male, Sprague Dawley, plasma, sc, SQ, rat, read-out: C1 h
  level at 1 h: 612 ng/mL
[3]; male, Sprague Dawley, plasma, sc, subcutaneous, rat, read-out: apparent mean V2/F
  Vd/F: 1 L/kg
[3]; rat, in vivo, SQ, rat
  AUC: 1930 ng·h/mL
[3]; rat, in vivo, SQ, rat, read-out: T1/2 (converted)
  half-life: 20.4 min
[3]; rat, in vivo, iv, rat
  AUC: 2230 ng·h/mL
[3]; rat, in vivo, iv, rat, read-out: T1/2 (converted)
  half-life: 11.4 min
[3]; rat, in vivo, iv, rat, read-out: terminal phase plasma half-life
  half-life: 11 min
[3]; rat, in vivo, sc, subcutaneous, rat, read-out: terminal phase plasma half-life
  half-life: 20 min
